Source: patent publication US8586552B2, “4,6-substituted 2,5-dideoxystreptamine aminoglycoside antibiotics” (SelectX Pharmaceuticals, Inc., priority 2012, dated 2013)
Converted amounts (≈) assume the structure as drawn.

Columns and labels:
Format in all cases: cell-based
[1] = test system: Pseudomonas aeruginosa PR1 (clinical isolate with intermediate aminoglycoside resistance); assay: MIC against Pseudomonas aeruginosa clinical isolate PR1; details: Pseudomonas aeruginosa resistant strain PR1
From the text: (§1) Pseudomonas aeruginosa is a prominent nosocomial pathogen. In addition to intrinsic antibiotic resistance to several antibiotics, Pseudomonas has acquired multiple additional mechanisms of resistance. As a result, therapeutic options for the treatment of infections caused by Pseudomonas aeruginosa are limited. We acquired clinical isolates of Pseudomonas aeruginosa (Micromyx LLC, Kalamazoo, Mich.), and used this panel to test compounds for Pseudomonicidal activity. […] For each strain and antibiotic, the mechanism(s) of resistance was inferred from the resistance profile. The presence of specific AGMEs was confirmed by colony PCR.

[2] = test system: Acinetobacter baumannii indicator strains (ABWT and clinical isolates); assay: Acinetobacter baumannii indicator strain panel, reference AGs; details: read-out: activity (MIC) against 3 of the 4 indicator strains
From the text: Acinetobacter baumannii is another clinically important and very challenging gram negative pathogen. Members of the Acinetobacter genus, including baumannii, have a remarkable ability to upregulate and acquire resistance determinants. Coupled with its ability to survive for prolonged periods in a hospital environment, A. baumannii is an emerging threat for healthcare institutions globally. We acquired clinical isolates of Acinetobacter baumannii and used this panel to test compounds for anti-Acinetobacter activity. We first tested reference AGs against our panel of Aba strains.

[3] = test system: Pseudomonas aeruginosa (Pae, PAWT, ATCC #27853); assay: MIC against Pseudomonas aeruginosa reference strain PAWT; details: ATCC27853; Pseudomonas aeruginosa wild type PAWT
From the text: (§2) For evaluation of efficacy, we assembled panels of representative gram-negative pathogens, including Pseudomonas aeruginosa (Pae, PAWT, ATCC #27853), Klebsiella pneumoniae (Kpn, KPWT, ATCC #700603), Acinetobacter baumannii (Aba, ABWT, ATCC #BAA-747) and Escherichia coli (Eco, ECWT, ATCC #25922). These reference strains are useful indicator organisms to characterize compound activity against bacteria from a pathogenic genus in the absence of multiple resistance mechanisms. Two strains (PAWT and ECWT) are reference strains cited within the Clinical and Laboratory Standards Institute (CLSI) Standards for susceptibility testing by Minimum Inhibitory Concentration (MIC) (SXPS2) and are well suited for quality control. ABWT and ECWT are widely susceptible to aminoglycoside antibiotics, whereas PAWT and KPWT harbor a single aminoglycoside-modifying enzyme (AGME) that targets 4,6-substituted-2-deoxystreptamine AGs. […]

[4] = test system: Klebsiella pneumoniae screening panel KPWT, KR1, KR2, KR3; assay: Klebsiella pneumoniae screening panel (KPWT, KR1, KR2, KR3), reference AGs
From the text: Klebsiella pneumoniae (Kpn) and Escherichia coli (Eco) are gram-negative (like Pae), enteric pathogens with increasing clinical relevance. Many clinical isolates of Kpn and Eco harbor extended-spectrum beta-lactamases and are no longer sensitive to most beta-lactam antibiotics. We acquired clinical isolates of Klebsiella pneumoniae and Escherichia coli (Micromyx LLC, Kalamazoo, Mich.) and used this panel to test compounds for anti-enteric activity.

[5] = test system: Acinetobacter baumannii (Aba, ABWT, ATCC #BAA-747); assay: MIC against Acinetobacter baumannii reference strain ABWT; details: ATCCBAA747
From the text: as §2

[6] = test system: Pseudomonas aeruginosa PR2 (clinical isolate with intermediate aminoglycoside resistance); assay: MIC against Pseudomonas aeruginosa clinical isolate PR2; details: Pseudomonas aeruginosa resistant strain PR2
From the text: as §1

[7] = test system: Klebsiella pneumoniae (Kpn, KPWT, ATCC #700603); assay: MIC against Klebsiella pneumoniae reference strain KPWT; details: ATCC700603; Klebsiella pneumoniae KPWT, Table 2
From the text: as §2, with “These reference strains are useful indicator organisms to characterize compound activity against bacteria from a pathogenic genus in the absence of multiple resistance mechanisms.” left out

[8] = test system: Pseudomonas aeruginosa PR3 (high-level, efflux-mediated, pan-aminoglycoside resistance); assay: MIC against Pseudomonas aeruginosa clinical isolate PR3; details: Pseudomonas aeruginosa, read-out: MIC PR3
From the text: as §1

[9] = test system: Escherichia coli (Eco, ECWT, ATCC #25922); assay: MIC against Escherichia coli reference strain ECWT; details: ATCC25922
From the text: For evaluation of efficacy, we assembled panels of representative gram-negative pathogens, including Pseudomonas aeruginosa (Pae, PAWT, ATCC #27853), Klebsiella pneumoniae (Kpn, KPWT, ATCC #700603), Acinetobacter baumannii (Aba, ABWT, ATCC #BAA-747) and Escherichia coli (Eco, ECWT, ATCC #25922). These reference strains are useful indicator organisms to characterize compound activity against bacteria from a pathogenic genus in the absence of multiple resistance mechanisms. Two strains (PAWT and ECWT) are reference strains cited within the Clinical and Laboratory Standards Institute (CLSI) Standards for susceptibility testing by Minimum Inhibitory Concentration (MIC) (SXPS2) and are well suited for quality control. ABWT and ECWT are widely susceptible to aminoglycoside antibiotics, whereas PAWT and KPWT harbor a single aminoglycoside-modifying enzyme (AGME) that targets 4,6-substituted-2-deoxystreptamine AGs.

SMILES: NCC[C@H](O)C(=O)N[C@@H]1C[C@H](N)[C@@H](O[C@H]2O[C@H](CN)CC[C@H]2N)[C@H](O)[C@H]1O[C@H]1O[C@H](CO)[C@@H](O)[C@H](N)[C@H]1O [arbekacin]
- MIC [1]: 8 µg/mL (≈ 14.5 µM)
- MIC [2]: ≤ 8 µg/mL
- MIC [3]: 0.5 µg/mL (≈ 0.905 µM)
- potency against Klebsiella pneumoniae test panel [4]: potency against 3 of 4 strains tested
- MIC [5]: 0.5 µg/mL (≈ 0.905 µM)
- MIC [6]: 8 to 16 µg/mL (≈ 14.5 to 29 µM)
- MIC [7]: 0.25 to 0.5 µg/mL (≈ 0.452 to 0.905 µM)
- MIC [8]: 16 µg/mL (≈ 29 µM)
- MIC [9]: 1 µg/mL (≈ 1.81 µM)
